Laboratory results from PubChem BioAssay (NCI).
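Step 1: Grow cells in 96-well plates. Step 2: Expose to compound for 48 hours at 5 concentrations. Step 3: Interpolate endpoints linearly; if unreached, use highest concentration. GI50: concentration for 50% inhibition of growth. TGI denotes the concentration required for complete inhibition of growth.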

Legend:
Assay in all cases: inhibition of tumour cell growth, NCI panel, 48 h
786-0 renal = system: 786-0 renal
A498 renal = system: A498 renal
A549 NSCLC = system: A549 NSCLC
ACHN renal = system: ACHN renal
CAKI-1 renal = system: CAKI-1 renal
CCRF-CEM leukemia = system: CCRF-CEM leukemia
COLO 205 colon = system: COLO 205 colon
DU-145 prostate = system: DU-145 prostate
HCC-2998 colon = system: HCC-2998 colon
HCT-116 colon = system: HCT-116 colon
HCT-15 colon = system: HCT-15 colon
HOP-62 NSCLC = system: HOP-62 NSCLC
HOP-92 NSCLC = system: HOP-92 NSCLC
HS 578T breast = system: HS 578T breast
IGROV1 ovarian = system: IGROV1 ovarian
K-562 leukemia = system: K-562 leukemia
KM12 colon = system: KM12 colon
LOX IMVI melanoma = system: LOX IMVI melanoma
M14 melanoma = system: M14 melanoma
MALME-3M melanoma = system: MALME-3M melanoma
MCF7 breast = system: MCF7 breast
MDA-MB-435 = system: MDA-MB-435
MOLT-4 leukemia = system: MOLT-4 leukemia
NCI-H226 lung = system: NCI-H226 lung
NCI-H23 lung = system: NCI-H23 lung
NCI-H460 lung = system: NCI-H460 lung
NCI-H522 lung = system: NCI-H522 lung
NCI/ADR-RES ovarian = system: NCI/ADR-RES ovarian
OVCAR-3 ovarian = system: OVCAR-3 ovarian
OVCAR-4 ovarian = system: OVCAR-4 ovarian
OVCAR-5 ovarian = system: OVCAR-5 ovarian
OVCAR-8 ovarian = system: OVCAR-8 ovarian
PC-3 prostate = system: PC-3 prostate
RPMI-8226 leukemia = system: RPMI-8226 leukemia
RXF 393 renal = system: RXF 393 renal
SF-268 CNS = system: SF-268 CNS
SF-295 CNS = system: SF-295 CNS
SK-MEL-2 melanoma = system: SK-MEL-2 melanoma
SK-MEL-28 melanoma = system: SK-MEL-28 melanoma
SK-MEL-5 melanoma = system: SK-MEL-5 melanoma
SK-OV-3 ovarian = system: SK-OV-3 ovarian
SN12C renal = system: SN12C renal
SNB-19 CNS = system: SNB-19 CNS
SR leukemia = system: SR leukemia
T-47D breast = system: T-47D breast
TK-10 renal = system: TK-10 renal
U251 CNS = system: U251 CNS
UACC-62 melanoma = system: UACC-62 melanoma
UO-31 renal = system: UO-31 renal

c1ccc2c(Nc3ccc4c(c3)OCO4)c3ccoc3nc2c1
GI50 (786-0 renal): 17.3 µM | TGI (786-0 renal): 40.3 µM | GI50 (A498 renal): 14.4 µM | TGI (A498 renal): 29.1 µM | GI50 (A549 NSCLC): 6.96 µM | TGI (A549 NSCLC): 35.8 µM | GI50 (ACHN renal): 20.2 µM | TGI (ACHN renal): 70.3 µM | GI50 (CAKI-1 renal): 12.3 µM | TGI (CAKI-1 renal): 33.3 µM | GI50 (CCRF-CEM leukemia): 15.2 µM | TGI (CCRF-CEM leukemia): > 100 µM | GI50 (COLO 205 colon): 20.2 µM | TGI (COLO 205 colon): > 100 µM | GI50 (DU-145 prostate): 14 µM | TGI (DU-145 prostate): 31.2 µM | GI50 (HCC-2998 colon): 12.5 µM | TGI (HCC-2998 colon): 29.6 µM | GI50 (HCT-116 colon): 14.7 µM | TGI (HCT-116 colon): 37.3 µM | GI50 (HCT-15 colon): 14.7 µM | TGI (HCT-15 colon): 45.6 µM | GI50 (HOP-62 NSCLC): 15.4 µM | TGI (HOP-62 NSCLC): 32.3 µM | GI50 (HOP-92 NSCLC): 12.7 µM | TGI (HOP-92 NSCLC): 43.3 µM | GI50 (HS 578T breast): > 100 µM | TGI (HS 578T breast): > 100 µM | GI50 (IGROV1 ovarian): 31.5 µM | TGI (IGROV1 ovarian): > 100 µM | GI50 (K-562 leukemia): 3.27 µM | TGI (K-562 leukemia): 27.8 µM | GI50 (KM12 colon): 14.2 µM | TGI (KM12 colon): 35.2 µM | GI50 (LOX IMVI melanoma): 17.9 µM | TGI (LOX IMVI melanoma): 41.7 µM | GI50 (M14 melanoma): 14.3 µM | TGI (M14 melanoma): 29.8 µM | GI50 (MALME-3M melanoma): 15.9 µM | TGI (MALME-3M melanoma): 34.3 µM | GI50 (MCF7 breast): 12.6 µM | TGI (MCF7 breast): > 100 µM | GI50 (MDA-MB-435): 3.97 µM | TGI (MDA-MB-435): 14.4 µM | GI50 (MOLT-4 leukemia): 5.69 µM | TGI (MOLT-4 leukemia): > 100 µM | GI50 (NCI-H226 lung): 25.5 µM | TGI (NCI-H226 lung): > 100 µM | GI50 (NCI-H23 lung): 10.9 µM | TGI (NCI-H23 lung): 27.3 µM | GI50 (NCI-H460 lung): 16.5 µM | TGI (NCI-H460 lung): > 100 µM | GI50 (NCI-H522 lung): 27.2 µM | TGI (NCI-H522 lung): > 100 µM | GI50 (NCI/ADR-RES ovarian): 7.66 µM | TGI (NCI/ADR-RES ovarian): 75.5 µM | GI50 (OVCAR-3 ovarian): 15.5 µM | TGI (OVCAR-3 ovarian): 36.6 µM | GI50 (OVCAR-4 ovarian): 29.4 µM | TGI (OVCAR-4 ovarian): > 100 µM | GI50 (OVCAR-5 ovarian): 25.9 µM | TGI (OVCAR-5 ovarian): 60.9 µM | GI50 (OVCAR-8 ovarian): 12.6 µM | TGI (OVCAR-8 ovarian): 46.4 µM | GI50 (PC-3 prostate): 18.9 µM | TGI (PC-3 prostate): 95.5 µM | GI50 (RPMI-8226 leukemia): 3.26 µM | TGI (RPMI-8226 leukemia): 25.6 µM | GI50 (RXF 393 renal): 3.53 µM | TGI (RXF 393 renal): 23.1 µM | GI50 (SF-268 CNS): 15.6 µM | TGI (SF-268 CNS): 51.6 µM | GI50 (SF-295 CNS): 14.7 µM | TGI (SF-295 CNS): 34.3 µM | GI50 (SK-MEL-2 melanoma): 26.4 µM | TGI (SK-MEL-2 melanoma): > 100 µM | GI50 (SK-MEL-28 melanoma): 19.2 µM | TGI (SK-MEL-28 melanoma): 58.6 µM | GI50 (SK-MEL-5 melanoma): 8.85 µM | TGI (SK-MEL-5 melanoma): 31.2 µM | GI50 (SK-OV-3 ovarian): 22.7 µM | TGI (SK-OV-3 ovarian): 99.7 µM | GI50 (SN12C renal): 24.2 µM | TGI (SN12C renal): 82.1 µM | GI50 (SNB-19 CNS): 26.5 µM | TGI (SNB-19 CNS): 81.3 µM | GI50 (SR leukemia): 3.98 µM | TGI (SR leukemia): 29.3 µM | GI50 (T-47D breast): 29.3 µM | TGI (T-47D breast): > 100 µM | GI50 (TK-10 renal): 19.4 µM | TGI (TK-10 renal): 42.9 µM | GI50 (U251 CNS): 17.6 µM | TGI (U251 CNS): 41.3 µM | GI50 (UACC-62 melanoma): 13.9 µM | TGI (UACC-62 melanoma): 33.1 µM | GI50 (UO-31 renal): 23.6 µM | TGI (UO-31 renal): > 100 µM
